Assay results reported in patent EP0658342A1, “Antineoplastic pharmaceutical composition containing a fumagillol derivative” (Takeda Chemical Industries, Ltd., priority 1993, dated 1995).

Tested on: Hormone-independent human prostatic cancer PC-3 strain cells
Assay: Tumor growth inhibitory activity against subcutaneously transplanted PC-3 tumors in Balb/c nu/nu mice (Experiments 1 and 2)
Type: in vivo
Settings: one-week intervals from 17th day; for Tumor size gain (mm³) mean±SD: Experiment 1, s.c. PC-3, Compound A 100 mg/kg s.c. (maltosyl-β-cyclodextrin inclusion compound), gain over size at first administration; for Tumor size ratio (T/C %): treated vs control group; for Tumor size gain (mm³) means±SD: Experiment 2, s.c. PC-3, Compound A 100 mg/kg s.c. (maltosyl-β-cyclodextrin inclusion compound)
Experimental: Hormone-independent human prostatic cancer PC-3 strain cells (hereinafter abbreviated as PC-3 cells) subcultured in vitro using a petri dish for tissue culture were removed from the dish wall by using 0.25% trypsin. The cells thus obtained were rinsed with Ham F-12K medium containing 10% serum and suspended in PBS (phosphate-buffered saline) so that the concentration of the cells became 3 x 10⁷/ml, and 100 µl of the resulting suspension was transplanted to the central part of the right side of the abdomens of Balb/c nu/nu mice (9 weeks old, male) with an injection syringe (25G needle). The tumor size was determined on the 17th day. The mice were divided into groups so that the mean tumor size of each groups was 96 to 97 mm³. Then administration of the drug prepared by the following method was started. The tumor size was determined with a caliper in terms of the major axis (a) and minor axis (b), and calculated from the following formula: 0.5 x a x b².
A 5% glucose solution was added to an inclusion compound of Compound A and maltosyl-β-cyclodextrin obtained in Reference Example 1 to adjust a dosage volume to 10 µl/g body weight of each mouse, and the resulting solution was administered to dorsal subcutaneous parts of mice.
The injection Randa (trade name, manufactured by Nippon Kayaku K.K., Japan) was used as cisplatin, dissolved in saline, adjusted to a dosage volume of 10 µl/g body weight of each mouse, and intraperitoneally administered to mice.
In the case of administration of Compound A alone and cisplatin alone, the first administration was carried out on the 17th day after the transplantation, and thereafter administrations were carried out at one-week intervals. In the case of concomitant administration of Compound A and cisplatin, cisplatin was administered on the 17th day after the transplantation, and Compound A was administered on the 21th day after the transplantation. Thereafter, each drug was administered at one-week intervals.
Tumor growth inhibitory activity was evaluated on the 49th day after the transplantation as follows. Each tumor size was determined on the 49th day, the tumor size on the day of the first administration was subtracted from the size on the 49th day, and the ratio (T/C%) of the tumor size of the drug administration group (T) to that of the control group (C) was calculated. The dose of the drug is indicated in terms of the weight of the drug (mg/kg body weight) per administration.
Mice bearing PC-3 cancer cells were prepared according to the same manner as that in Experiment 1. The tumor size was determined on the 17th day after the transplantation. Mice were divided into groups so that the average tumor size of each group was 108 to 109 mm³. Then drug administration was started. Preparation of the drug, determination of the tumor size, evaluation of tumor growth inhibitory activity, etc., were carried out according to the methods of Experiment 1.
In the case of administration of Compound A alone and cisplatin alone, the first administration was carried out on the 17th day after the transplantation, and thereafter administrations were carried out at one-week intervals.
The following three combinations of the drugs were administered. Cisplatin and Compound A were administered on the 17th day and 21th day after the transplantation, respectively, and thereafter each drug was administered at one-week intervals. These administrations are hereinafter referred to as Combination 1. Compound A and cisplatin were administered on the 17th day and 21th day after the transplantation, respectively, and thereafter each drug was administered at one-week intervals. These administrations are hereinafter referred to as Combination 2. Compound A and cisplatin were administered simultaneously on the 17th day after the transplantation, and thereafter each drug was administered at on-week intervals. These administrations are hereinafter referred to as Combination 3. […]

[1] = cisplatin 4 mg/kg i.p., evaluated 49th day
[2] = Experiment 1, s.c. PC-3, Compound A 100 mg/kg s.c., cisplatin 4 mg/kg i.p., evaluated 49th day
[3] = cisplatin 5 mg/kg i.p., evaluated 42th day
[4] = Experiment 2, s.c. PC-3, Compound A 100 mg/kg s.c., cisplatin 5 mg/kg i.p., evaluated 42th day

Row | Molecule | Tumor size gain (mm³) mean±SD [1] [mm³] | Tumor size ratio (T/C %) [2] [%] | Tumor size gain (mm³) means±SD [3] [mm³] | Tumor size ratio (T/C %) [4] [%]
1 | 6-O-(N-chloroacetylcarbamoyl)fumagillol [Compound A] | 591±242 | 49 | 400±126 | 30
2 | N.N.[Cl][Pt][Cl] [Cisplatin, cisplatin] | 230±182 | 19 | 345±163 | 26
